Five molecules from PMC6259751, “Investigating Spectrum of Biological Activity of 4- and 5-Chloro-2-hydroxy-N-[2-(arylamino)-1-alkyl-2-oxoethyl]benzamides” (Molecules, 2011) can be followed below.

Values after ≈ are worked out from the molar mass of the structure shown. Values joined by “and” are separate entries in the source; they are usually repeats but may differ in a detail not shown here. Equal entries are not always repeated. Where two headings read alike, the source gives them in different places.

The subject of data set [1] is Enterococcus sp. J 14365/08. The experiment in a line: In vitro antibacterial susceptibility testing (broth microdilution). The conditions noted are these: read-out: MIC EF. In general terms: In broth dilution the organism is exposed to a series of concentrations in liquid medium.
For data set [2], the system named is Staphylococcus epidermidis H 6966/08. The data set is described as above. The following applies: read-out: MIC SE.
Data set [3] in a line: Lipophilicity determination by RP-HPLC (capacity factor k / log k). The following applies: C18 column, MeOH 70% / H2O 30%, isocratic. The format is physicochemical. How it is done:
Hydrophobicities (log P/Clog P) of compounds 8 and 9 were calculated using two commercially available programs (ChemOffice Ultra 10.0 and ACD/LogP) and measured by means of RP-HPLC determination of capacity factors k with subsequent calculation of log k. The procedure was performed under isocratic conditions with methanol as an organic modifier in the mobile phase using an end-capped non-polar C18 stationary RP column. The results are shown in Table 1 and illustrated in Figure 1.
A Waters Alliance 2695 XE HPLC separation module and a Waters Photodiode Array Detector 2996 (Waters Corp., Milford, MA, USA) were used. A Symmetry® C18 5 μm, 4.6 × 250 mm, Part No. WAT054275 (Waters Corp., Milford, MA, USA) chromatographic column was used. The HPLC separation process was monitored by Empower™ 2 Chromatography Data Software, Waters 2009 (Waters Corp., Milford, MA, USA). A mixture of MeOH p.a. (70%) and H2O-HPLC – Mili-Q Grade (30%) was used as a mobile phase. The total flow of the column was 1.0 mL/min, injection volume, 30 μL, column temperature, 30 °C and sample temperature, 10 °C. The detection wavelength of 210 nm was chosen. The KI methanolic solution was used for the dead time (tD) determination. Retention times (tR) were measured in minutes. The capacity factors k were calculated using the Empower™ 2 Chromatography Data Software according to formula k = (tR - tD)/tD, where tR is the retention time of the solute, whereas tD denotes the dead time obtained using an unretained analyte. Log k, calculated from the capacity factor k, is used as the lipophilicity index converted to log P scale.

Data set [4] has as its system Mycobacterium kansasii MK CNCTC My 235/80. As to the kind of experiment: In vitro antimycobacterial evaluation. The conditions noted are these: IC90 value. The format is cell-based.
The test system of data set [5] is Trichophyton mentagrophytes 445. As to the kind of experiment: In vitro antifungal susceptibility testing (broth microdilution). In kind it is cell-based.
For data set [6], the system named is Staphylococcus aureus CCM 4516/08. As to the kind of experiment: In vitro antibacterial susceptibility testing (broth microdilution). The following applies: read-out: MIC SA.
In data set [7] the test system is methicilin resistant Staphylococcus aureus H 5996/08. Described as above. The conditions noted are these: MRSA, read-out: MIC MRSA.
In another data set the test system is Candida tropicalis 156. The experiment in a line: In vitro antifungal susceptibility testing (broth microdilution). The following applies: M27-A2 for yeasts, IC80 value. In kind it is cell-based.
The subject of data set [8] is Mycobacterium avium MA CNCTC My 330/88. As to the kind of experiment: In vitro antimycobacterial evaluation. The following applies: IC90 value. The format is cell-based.
In data set [9] the test system is Mycobacterium tuberculosis MTB CNCTC My 331/88. As to the kind of experiment: In vitro antimycobacterial evaluation. The conditions noted are these: IC90 value. The format is cell-based.
Setting [10] is: 72h, M38-A for moulds, IC50 value, read-out: MIC TM.
[11] abbreviates: 120h, M38-A for moulds, IC50 value, read-out: MIC TM.

For the molecule `CC(C)[C@H](NC(=O)c1cc(Cl)ccc1O)C(=O)Nc1ccc(Cl)cc1` [8i], the MIC (as a rule, the lowest concentration that inhibits growth of the organism) in data set [1] (SP.J14365/08, 24 h) stood at 31.2 µM (≈ 11.9 µg/mL); in data set [1] (SP.J14365/08, 48 h) it was 150 µM (≈ 57.2 µg/mL); in data set [2] (H6966/08, 24 h), 31.2 µM (≈ 11.9 µg/mL); in data set [2] (H6966/08, 48 h), 250 µM (≈ 95.3 µg/mL); in data set [4] (14h) it was 62.5 µM (≈ 23.8 µg/mL); in data set [4] (21h), 62.5 µM (≈ 23.8 µg/mL). For the same molecule, the MIC in data set [5] (setting [10]) is > 125 µM; in data set [5] (setting [11]) it was > 125 µM; in data set [6] (CCM4516, 24 h), 7.81 µM (≈ 2.98 µg/mL); in [6] (CCM4516, 48 h) it was 15.6 µM (≈ 5.96 µg/mL); in [7] (24 h) it was 15.6 µM (≈ 5.96 µg/mL); in [7] (48 h), 15.6 µM (≈ 5.96 µg/mL). For the same molecule, the MIC was > 125 µM in the data set on Candida tropicalis 156 (24h); > 125 µM with Candida tropicalis 156 (48h); 62.5 µM (≈ 23.8 µg/mL) in [8] (14h); 62.5 µM (≈ 23.8 µg/mL) in data set [8] (21h); 32 µM (≈ 12.2 µg/mL) in data set [9] (14h); 32 µM (≈ 12.2 µg/mL) in data set [9] (21h). The same molecule gave a log k in data set [3] of 0.6371.
With `CC(C)[C@H](NC(=O)c1cc(Cl)ccc1O)C(=O)Nc1ccc(Cl)c(Cl)c1` [8o], the MIC in data set [1] (SP.J14365/08, 24 h) is > 500 µM; in data set [1] (SP.J14365/08, 48 h), > 500 µM; in data set [2] (H6966/08, 24 h), > 500 µM; in data set [2] (H6966/08, 48 h) it was > 500 µM; in [4] (14h), 32 µM (≈ 13.3 µg/mL); in [4] (21h) it was 62.5 µM (≈ 26 µg/mL). For the same molecule, the MIC was > 125 µM in data set [5] (setting [10]); > 125 µM in data set [5] (setting [11]); > 500 µM in [6] (CCM4516, 24 h); > 500 µM in data set [6] (CCM4516, 48 h); > 500 µM in data set [7] (24 h); > 500 µM in data set [7] (48 h). Also, the minimum inhibitory concentration (MIC) against Candida tropicalis 156 (24h) is > 125 µM; against Candida tropicalis 156 (48h), > 125 µM; in [8] (14h) it was 62.5 µM (≈ 26 µg/mL); in [8] (21h) it was 125 µM (≈ 52 µg/mL); in [9] (14h) it was 32 µM (≈ 13.3 µg/mL); in [9] (21h) it was 32 µM (≈ 13.3 µg/mL). In data set [3], the log k came out at 0.8623.
On to `O=C(N[C@H](Cc1ccccc1)C(=O)Nc1cccc(Cl)c1)c1cc(Cl)ccc1O` [8g, N-{(1S/R)-1-benzyl-2-[(3-chlorophenyl)amino]-2-oxoethyl}-5-chloro-2-hydroxybenzamide], for which the minimum inhibitory concentration (MIC) in data set [1] (SP.J14365/08, 24 h) was > 500 µM; in data set [1] (SP.J14365/08, 48 h) it was > 500 µM; in [2] (H6966/08, 24 h), > 500 µM; in data set [2] (H6966/08, 48 h), > 500 µM; in data set [4] (14h), 62.5 µM (≈ 26.8 µg/mL); in [4] (21h), 62.5 µM (≈ 26.8 µg/mL). Also, the MIC in data set [5] (setting [10]) was 125 µM (≈ 53.7 µg/mL); in data set [5] (setting [11]), 125 µM (≈ 53.7 µg/mL); in data set [6] (CCM4516, 24 h) it was > 500 µM; in [6] (CCM4516, 48 h) it was > 500 µM; in data set [7] (24 h) it was > 500 µM; in [7] (48 h), > 500 µM. Also, the MIC with Candida tropicalis 156 (24h) was 31.2 µM (≈ 13.4 µg/mL); against Candida tropicalis 156 (48h) it was 125 µM (≈ 53.7 µg/mL); in data set [8] (14h), 32 µM (≈ 13.7 µg/mL); in [8] (21h), 32 µM (≈ 13.7 µg/mL); in data set [9] (14h), 62.5 µM (≈ 26.8 µg/mL); in data set [9] (21h), 62.5 µM (≈ 26.8 µg/mL). Also, the log k in [3] is 0.70 and 0.7066.
For `C[C@@H](NC(=O)c1cc(Cl)ccc1O)C(=O)Nc1cccc(Cl)c1` [8c, 5-chloro-N-{(1R)-2-[(3-chlorophenyl)amino]-1-methyl-2-oxoethyl}-2-hydroxybenzamide], the MIC in [1] (SP.J14365/08, 24 h) was > 500 µM; in data set [1] (SP.J14365/08, 48 h), > 500 µM; in data set [2] (H6966/08, 24 h), > 500 µM; in data set [2] (H6966/08, 48 h), > 500 µM; in data set [4] (14h), 62.5 µM (≈ 22.1 µg/mL); in [4] (21h), 62.5 µM (≈ 22.1 µg/mL). The MIC was 0.49 µM (≈ 0.173 µg/mL) in [5] (setting [10]); 0.49 µM (≈ 0.173 µg/mL) in [5] (setting [11]); 0.49 µM (≈ 0.173 µg/mL) in data set [5] (conclusions, incubation time not stated, read-out: antifungal activity against Trichophyton mentagrophytes (MIC)); > 500 µM in data set [6] (CCM4516, 24 h); > 500 µM in data set [6] (CCM4516, 48 h); > 500 µM in data set [7] (24 h). Besides, the MIC is > 500 µM in [7] (48 h); 31.2 µM (≈ 11 µg/mL) against Candida tropicalis 156 (24h); 125 µM (≈ 44.2 µg/mL) against Candida tropicalis 156 (48h); 125 µM (≈ 44.2 µg/mL) in [8] (14h); 250 µM (≈ 88.3 µg/mL) in [8] (21h); 62.5 µM (≈ 22.1 µg/mL) in data set [9] (14h). Moreover, the minimum inhibitory concentration (MIC) in [9] (21h) worked out at 125 µM (≈ 44.2 µg/mL). In data set [3], the log k is 0.41 and 0.4153.
As to `CC(C)[C@@H](NC(=O)c1cc(Cl)ccc1O)C(=O)Nc1ccc(Br)cc1` [8t], the MIC in data set [1] (SP.J14365/08, 24 h) was > 125 µM; in data set [1] (SP.J14365/08, 48 h), > 125 µM; in data set [2] (H6966/08, 24 h), > 125 µM; in data set [2] (H6966/08, 48 h) it was > 125 µM; in [4] (14h) it was 62.5 µM (≈ 26.6 µg/mL); in data set [4] (21h), 125 µM (≈ 53.2 µg/mL). Also, the MIC was > 125 µM in [5] (setting [10]); > 125 µM in data set [5] (setting [11]); > 125 µM in [6] (CCM4516, 24 h); > 125 µM in [6] (CCM4516, 48 h); > 125 µM in data set [7] (24 h); > 125 µM in [7] (48 h). In addition, the MIC was > 125 µM against Candida tropicalis 156 (24h); > 125 µM in the data set with Candida tropicalis 156 (48h); 62.5 µM (≈ 26.6 µg/mL) in data set [8] (14h); 62.5 µM (≈ 26.6 µg/mL) in [8] (21h); 62.5 µM (≈ 26.6 µg/mL) in data set [9] (14h); 62.5 µM (≈ 26.6 µg/mL) in data set [9] (21h). This molecule also yielded a log k in data set [3] of 0.6646.
